First: O=[N+]([O-])c1cc(Cl)c(N=C=S)c(Cl)c1
Second: COC(=O)c1cc(Oc2ccc([N+](=O)[O-])cc2)ccc1OC
The melting point of the first is lower: 74 to 77 °C for the first, 115 to 118 °C for the second.

Compared with `NC(=NCCN(Cc1ccc(F)cc1)c1ccccn1)NCCCc1c[nH]cn1`, `NCCc1c[nH]c2ccc(Cc3nnn(Cc4ccccc4)n3)cc12` is higher in melting point: 60 to 63 °C for the first, 181 to 183 °C for the second.

Compared with `O=c1cc(-c2ccc(OCCO)cc2)oc2ncccc12`, `COc1ccc(OCC(O)COc2cccc3oc(C(=O)O)cc(=O)c23)cc1` (stereo unspecified) is lower in melting point: 157 to 159 °C for the first, 125 to 126 °C for the second.

First: COc1ccc2cc([C@H](C)C(=O)OCCS(=O)(=O)CCO)ccc2c1
Second: COC(=O)Nc1cc(OS(=O)(=O)c2ccc(C)cc2)nc(N)n1
The melting point of the first is lower: 81 to 84 °C for the first, 188 to 190 °C for the second.

First: CC(C)c1cccc(C(C)C)c1NC(=O)[C@H](Cc1ccc(OCc2ccccc2)cc1)NC(=O)OCC1c2ccccc2-c2ccccc21
Second: CC(C)(C)OC(=O)Nc1cc(OCc2ccccc2)cc(OCc2ccccc2)c1
The melting point of the first is higher: 168 to 171 °C for the first, 96 to 98 °C for the second.

Compared with `COc1ccc(C(=O)Nc2ccccc2C(=O)NCCCC(=O)O)cc1`, `COc1ccc(C(=O)Nc2ccc3ccc(C=O)nc3n2)cc1` is higher in melting point: 172 to 174 °C for the first, 194 °C for the second.

First: COc1ccc(C=CC(=O)Nc2ccccc2C(=O)O)cc1O
Second: Cc1cc2ncc(NC(=O)C=Cc3ccc(O)c(O)c3)c(-c3ccccc3Cl)c2cc1C
The melting point of the first is lower: 215 to 216 °C for the first, 272 to 274 °C for the second.

First: Cn1ccc(=S)c2ccccc21
Second: CC(=O)NCCn1c(=O)[nH]c2ccccc21
The melting point of the first is higher: 208 to 210 °C for the first, 153 °C for the second.

Compared with `Cc1cc(C)c2c(c1)CC2=NNC(N)=S`, `CON1CCC2(CC1)C(OCc1ccccc1)=C(c1c(C)cc(C)cc1C)C(=O)N2C` is lower in melting point: 230 to 232 °C for the first, 139 to 141 °C for the second.

First: CC(C)COc1c(-c2ccc(S(C)(=O)=O)cc2)cnn(-c2ccc(F)cc2)c1=O
Second: COc1ccc(Cn2nc(-c3ccc(SC)cc3)c(-c3ccc(F)cc3)cc2=O)cc1
The melting point of the first is lower: 121 to 128 °C for the first, 165 to 166 °C for the second.

Compared with `O=C(C1CCC1)N1CCC2(CC1)Cc1ccccc1O2`, `CN(C)C(=O)[C@@H]1CCCN1C(=O)OCc1ccccc1` is lower in melting point: 91 to 93 °C for the first, 66 to 67 °C for the second.

`O=C1NC(=O)C(=Cc2cc(O)c(O)c([N+](=O)[O-])c2)N1` and `O=C1Nc2cccc(O)c2C12COc1cc3c(cc12)OCCO3` (stereo unspecified) cannot be ordered by melting point: > 350 °C for the first, > 250 °C for the second.

Compared with `CN=C(NC#N)NCCSCc1ncccc1O`, `Cc1cccc2c1C(NCCSCc1ccc(CN(C)C)o1)=NS2(=O)=O` is lower in melting point: 146 to 148 °C for the first, 90 to 92 °C for the second.

Compared with `O=c1ccc(-c2ccc(OC3CCN(C4CCCC4)CC3)cc2)n[nH]1`, `O=[N+]([O-])c1ccc(CO)cc1OC1CCCC1` is lower in melting point: 211 to 213 °C for the first, 54 °C for the second.

First: N#Cc1ncn2c1[C@@H]1CCN1C(=O)c1c-2ccc(F)c1Cl
Second: COc1c(Cl)c(F)cc2c(=O)c(C(=O)O)cn(C3CC3)c12
The melting point of the first is higher: 225 to 228 °C for the first, 195 to 199 °C for the second.

Compared with `COc1cc2ncnc(N3CCN(C(=O)Nc4ccc5[nH]ccc5c4)CC3)c2cc1OC`, `O=C(Nc1ccc(N2CCOCC2)c(C(F)(F)F)c1)c1ccc(F)c(OCc2cncc3ccccc23)c1` is lower in melting point: 209 to 210 °C for the first, 175 to 180 °C for the second.

Compared with `Cc1nn(-c2cc(O)c(Cl)cc2F)c(=O)n1C(F)F`, `CCC(COC(C)=O)Nc1c(-c2c(F)cc(F)cc2F)c(Cl)nc2ncnn12` (stereo unspecified) is lower in melting point: 147 to 152 °C for the first, 39 to 42 °C for the second.

First: CN1CCOc2cc(S(=O)(=O)n3c(CCC(=O)O)cc4nc(Cl)ccc43)ccc21
Second: NCc1ccc(N2CCCN(c3ccc(CCC(=O)O)cc3)C2=O)cc1
The melting point of the first is lower: 175 to 185 °C for the first, 229 to 231 °C for the second.

First: CC(=Cc1ccc2c(c1)Sc1cc(C=C(C)c3ccccc3)ccc1N2C)c1ccccc1
Second: O=c1c(O)c(-c2ccc3c(c2)OC(c2ccccc2)(c2ccccc2)O3)oc2cc(O)cc(O)c12
The melting point of the first is lower: 189 to 191 °C for the first, 239 to 240 °C for the second.

First: CCCc1c(O)ccc2c(OCc3ccccc3)cc(=O)oc12
Second: COc1cccc2c(-c3ccccc3)c([N+](=O)[O-])oc12
The melting point of the first is higher: 213 to 214 °C for the first, 160 to 161 °C for the second.

Compared with `O=C(O)c1ncncc1Br`, `N=C(NO)c1ccc(Cl)nc1` is lower in melting point: 200 °C for the first, 185 to 186 °C for the second.

Compared with `CCC(=O)NCCC1c2cc(OC)ccc2-c2ccc3c(c21)OCO3` (stereo unspecified), `COCCNC(=O)Cc1ccc2ccn(C3CCN(CCc4ccc(F)cc4)CC3)c2c1` is lower in melting point: 145 to 147 °C for the first, 113 to 114 °C for the second.

First: CCOC(=O)Cc1cc(C)c(C(=O)c2ccccc2)n1C
Second: CCCn1cc(Cc2ccc(C(=O)NS(=O)(=O)c3ccccc3C)cc2OC)c2cc(C=CCC(=O)N(C)C)ccc21
The melting point of the first is lower: 78 to 80 °C for the first, 119 to 121 °C for the second.

First: Cc1cc(Br)cnc1CCCCNC1=NS(=O)(=O)c2cc(S(N)(=O)=O)ccc21
Second: CCCc1nc2c(N)nc3ccccc3c2n1CCOCCCS(=O)(=O)c1ccccc1C
The melting point of the first is higher: 219 to 221 °C for the first, 159 to 160 °C for the second.

First: CC1CCC(=NN)c2ncc(C(=O)O)c(=O)n21 (stereo unspecified)
Second: C[C@H]1CN(c2c(F)c(F)c3c(=O)c(C(=O)O)cn(C4CC4)c3c2F)C[C@H]1N (relative stereo)
The melting point of the first is lower: 202 to 203 °C for the first, 255 to 256 °C for the second.

First: COC(=O)C1C=CCN2C(=O)C(CCO)(Cc3ccccc3)C(=O)N12 (stereo unspecified)
Second: COC(=O)[C@H](COCc1ccccc1)NC(=O)Nc1n[nH]c(=S)s1
The melting point of the first is higher: 148 to 149 °C for the first, 84 to 86 °C for the second.

Compared with `COc1cc(Nc2nccc(-c3ccc(N(C)CCN(C)C)nc3)n2)cc(OC)c1OC`, `COc1ccc(S(=O)(=O)N(C)c2ccc(Cl)cc2C(O)c2ccccc2Cl)cc1OC` (stereo unspecified) is higher in melting point: 97 to 98 °C for the first, 173 °C for the second.

First: COC(=O)c1ccc(OCC(C)C)c([N+](=O)[O-])c1
Second: COc1ccc(C(C#N)=NO)cc1OC
The melting point of the first is lower: 77 °C for the first, 183 to 191 °C for the second.

Compared with `COc1ccc(C(=O)OCc2ccccc2)cc1NC(=S)Nc1cc(Cl)cc(Cl)c1`, `Cc1ccccc1COc1cccnc1NC(=S)Nc1ccc(Cl)cc1` is higher in melting point: 144 to 145 °C for the first, 181 to 183 °C for the second.

Compared with `COC(=O)c1ccc(C(=O)c2ccc(CCl)cc2)cc1`, `Cc1[nH]c(=O)ccc1C(=O)c1ccc([N+](=O)[O-])cc1` is higher in melting point: 122 to 125 °C for the first, 282 to 284 °C for the second.

First: Cn1ncc2cc3ncc(-c4ccc(Cl)s4)nc3cc21
Second: CCCc1nc2c(N)nc3ccc(-c4cccc(CN)c4)cc3c2s1
The melting point of the first is higher: 225 to 227 °C for the first, 189 to 191 °C for the second.

First: OCc1cn(-c2ccc(Cl)cc2)cn1
Second: ClCc1ccc(-c2ccccc2)nc1
The melting point of the first is higher: 115 to 116 °C for the first, 95 to 96 °C for the second.

First: CCCCc1nc(Cl)c(C=O)n1Cc1ccc(-c2nnn(C(c3ccccc3)(c3ccccc3)c3ccccc3)n2)cc1
Second: CCOC(=O)Cc1c(C)n(Cc2ccccc2)c2cccc(OCc3coc(-c4ccccc4)n3)c12
The melting point of the first is higher: 154 to 157 °C for the first, 103 to 105 °C for the second.

Compared with `CSCC[C@H](NC(=O)[C@@H](N)CC(C)C)[C@@H](O)c1nccs1`, `CCOC(=O)C(=NOCC(C)C)c1csc(N)n1` is higher in melting point: 83 to 85 °C for the first, 122 to 124 °C for the second.

First: COC(=O)C=Cc1ccc(-n2c(C)ccc2C)cc1
Second: CC(C)(C)OC(=O)Nc1ccc(C#Cc2ccc(OC(F)(F)F)cc2)cc1[N+](=O)[O-]
The melting point of the first is lower: 73 to 75 °C for the first, 129 to 131 °C for the second.

First: O=[N+]([O-])C=C1SCCCN1S(=O)(=O)CCCCl
Second: C[C@H](NC(CCC(=O)O)C(=O)O)C(=O)N1CCC[C@H]1C(=O)O (stereo partly specified)
The melting point of the first is lower: 99 °C for the first, 140 to 160 °C for the second.

Compared with `CCOC(=O)N1C(NC(C)C)=NS(=O)(=O)c2c1cnn2C`, `CCOCc1nc2c(NC(=O)C(C)C)nc3ccccc3c2n1CC(C)(C)NS(C)(=O)=O` is lower in melting point: 141 to 145 °C for the first, 67 to 70 °C for the second.

Going from `CN(C(=O)CN(C(=O)CNC(=O)Nc1cccc(C#N)c1)c1ccccc1)c1ccccc1` to `C#CCCCOC(=O)NC(=O)C(c1ccccc1)c1ccccc1`, the melting point falls from 204 °C to 109 °C.

Going from `C/C=C/c1ccc2c(NCc3ccc(NC(=O)C4CCN(Cc5ccccc5)CC4)cc3)nc(N(C)C)nc2c1` to `COc1ccc2cccc(N3C(=O)CN(Cc4ccccc4)CC3=O)c2c1`, the melting point rises from 154 °C to 178 °C.

Compared with `CCCCc1n[nH]c(C(=O)O)c1Cc1ccc(-c2ccccc2-c2nc(=O)o[nH]2)cc1`, `Cc1sc(-c2ccccc2)nc1COc1cc(COc2ncccc2C#N)on1` is lower in melting point: 213 to 214 °C for the first, 135 to 136 °C for the second.

First: O=C1CCC(c2ccc3c(c2)NCCO3)=NN1
Second: CC1(C)SC(c2ccc3c(c2)CCC3)NC1C(=O)O (stereo unspecified)
The melting point of the first is higher: 198 to 199 °C for the first, 140 to 142 °C for the second.

First: COCc1cccc(COC)c1C#N
Second: COc1cccc2c1CC(NC(C)=O)CC2 (stereo unspecified)
The melting point of the first is lower: 80 to 81 °C for the first, 156 to 157 °C for the second.

First: O=C(NC1CCCCC1)c1cc2ccncc2[nH]1
Second: COc1ccc2[nH]c(SCc3ncc(C)c(N4CCCC4)c3Cl)nc2c1
The melting point of the first is higher: 298 to 301 °C for the first, 152 to 158 °C for the second.

First: C1CNC2CNCC2C1 (stereo unspecified)
Second: O=C1c2cscc2Nc2ccccc2N1C1C=CCCC1 (stereo unspecified)
The melting point of the first is lower: 65 to 67 °C for the first, 147 to 149 °C for the second.

Compared with `COc1ccc(N2CCN(C(=O)c3ccccc3C(c3ccc(O)cc3)c3ccc(O)cc3)CC2)cc1`, `Nc1nccc(-c2ccccc2OCC(O)CN2CCN(c3ccc(Cl)cc3)CC2)n1` (stereo unspecified) is lower in melting point: 208 to 210 °C for the first, 159 to 160 °C for the second.

First: OC(CSC(=S)Nc1ccccn1)c1ccccc1 (stereo unspecified)
Second: CCn1c(N)nc2cc(CN3CCN(C(c4ccccc4)c4ccccc4)CC3)ccc21
The melting point of the first is lower: 82 °C for the first, 214 °C for the second.

Compared with `COC(=O)c1ccc(NN2C(=O)C(C)=C(C)C2=O)cc1C(=O)Nc1nc(OC)nc(OC)n1`, `CC(C)(C)OC(=O)NC(CO)COc1noc2ccc(Cl)cc12` (stereo unspecified) is lower in melting point: 123 to 127 °C for the first, 121 to 122 °C for the second.

First: CC(C)(C)OC(=O)N1CCN(c2ccc(N3CC(CO)OC3=O)cc2F)CC1 (stereo unspecified)
Second: CC(C)N1CCOC(COc2cccc3c2CC=C3)C1 (stereo unspecified)
The melting point of the first is higher: 144 to 146 °C for the first, 107 to 109 °C for the second.

Compared with `O=C(O)CON=c1c2nccc3cccc(c32)n2cccc12`, `O=S(=O)(c1ccccc1)c1cnc2c(N3CCNCC3)cccc2c1` is lower in melting point: 212 °C for the first, 164 °C for the second.

First: Nc1nc(Oc2cc(F)cc(F)c2)nc2nc(-c3ccco3)nn12
Second: CCCc1nn(-c2ccc(C(F)(F)F)cn2)cc1COc1cccc(CC(=O)O)c1
The melting point of the first is higher: > 300 °C for the first, 77 to 78 °C for the second.

With `Nc1ncc2ncn(CCO)c2n1` the melting point was 173 to 175 °C.

— a melting point compilation (Tetko et al.; mined from patent text by program, amines drawn as free bases though some values may be those of a salt)
